Data on two compounds can be found in US10870886B2, “Molecular diagnosis of FSHD by epigenetic signature” (University of Massachusetts Medical Center, priority 2014, dated 2020).

One assay relates to DUX4-fl. Kind of assay: DUX4-fl mRNA expression by qRT-PCR in myogenic cells treated with epigenetic drugs. Particulars: for DUX4-fl response: cells from nonmanifesting subjects 15B, 28B, 30B; for DUX4-fl levels: healthy control myogenic cells (five cohorts). Type of assay: cell-based, human. The procedure: (§1) Drug treatment. Stock solutions of 100 mM 5-Aza-2′-deoxycytidine/Decitabine, (Sigma-Aldrich A3656) in DMSO, 5 mM Trichostatin A solution (TSA, Sigma-Aldrich T1952), and 10 mM chaetocin (Sigma-Aldrich C9492) in DMSO were stored at −20° C. and diluted with PBS just before adding to the culture. To minimize culturing artifacts, low passage (<30 population doublings) myoblast cultures were used for all experiments and culture pairs for affected vs healthy or affected vs nonmanifesting were within 1 passage of each other in all instances. Myoblasts were seeded on collagen-coated plates at a cell density of 1.9×10^3/cm^2. Starting the following day, Decitabine (5 μM final concentration) was added daily for a total of 3 days. When used, TSA (200 nM final concentration) or chaetocin (50 nM final concentration) was added to the cells for the last 24 hrs prior to sampling.
qRT-PCR. Total RNAs were extracted using Trizol (Invitrogen) and purified using the RNeasy Mini kit (Qiagen) after on-column DNase I digestion. Total RNA (2 μg) was used for cDNA synthesis using Superscript III Reverse Transcriptase (Invitrogen), and 200 ng of cDNA were used for DUX4-fl qPCR analysis as described. All data were normalized to levels of 18S rRNA [98]. Oligonucleotide primer sequences are provided in [33]. For the analysis of ANKRD1 mRNA expression, 40 ng of cDNA were used with primers hANKRD1 For: […] (SEQ ID NO: 16) and Rev: […] (SEQ ID NO: 17).
Background: In qPCR the cycle at which signal appears reflects the starting amount.

Assay [1] concerns ANKRD1 (Ankyrin Repeat Domain 1). Kind of assay: ANKRD1 mRNA expression by qRT-PCR in drug-treated myocytes (control gene). It counts as cell-based, human. To be noted: myocytes of cohorts 07 and 19, affected (A) and control (U). The procedure: as §1
qRT-PCR. Total RNAs were extracted using Trizol (Invitrogen) and purified using the RNeasy Mini kit (Qiagen) after on-column DNase I digestion. Total RNA (2 μg) was used for cDNA synthesis using Superscript III Reverse Transcriptase (Invitrogen), and 200 ng of cDNA were used for DUX4-fl qPCR analysis as described. All data were normalized to levels of 18S rRNA [98]. Oligonucleotide primer sequences are provided in [33]. For the analysis of ANKRD1 mRNA expression, 40 ng of cDNA were used with primers hANKRD1 For: […] […]

[2] abbreviates: cells from FSHD1 individuals manifesting weakness 15A, 28A, 29A, 30A.
Setting [3] is: myogenic cells of FSHD1-affected subject 03A, relative to untreated, Decitabine 5 μM daily 3 days, TSA 200 nM last 24 hrs.

On to `CC(/C=C/C(=O)NO)=C\[C@@H](C)C(=O)c1ccc(N(C)C)cc1` [TSA, Trichostatin A], for which the DUX4-fl expression result in the assay on DUX4-fl (setting [2]) is reported as “little to no effect”. Moreover, in the assay with DUX4-fl, the DUX4-fl response entry is given as “little to no response” and the DUX4-fl levels entry is “no effect”. Moreover, the DUX4-fl expression entry with DUX4-fl (cohorts 07 and 19) was “no effect”. The DUX4-fl induction result with DUX4-fl (setting [3]) is on record as “showed induction”. Besides, the ANKRD1 expression entry in assay [1] is given as “induced ANKRD1 expression”.
`Nc1ncn([C@H]2C[C@H](O)[C@@H](CO)O2)c(=O)n1` [Decitabine, 5-aza-2′-deoxycytidine]: the DUX4-fl expression entry with DUX4-fl (setting [2]) is given as “induced DUX4-fl expression”. In the assay on DUX4-fl, the DUX4-fl response result is given as “little to no response”. In addition, the DUX4-fl induction is 20 fold in the assay on DUX4-fl (cohort 07, as quoted in FIG. 22 legend from FIG. 20); 32 fold with DUX4-fl (cohort 19, as quoted in FIG. 22 legend from FIG. 20); 50 fold in the assay with DUX4-fl (setting [3]); 120 fold with DUX4-fl (myogenic cells of FSHD1-affected subject 07A, relative to untreated); “did not show induction” in the assay on DUX4-fl (myogenic cells of FSHD1-affected subject 09A); 3.2 fold in the assay with DUX4-fl (myogenic cells of FSHD1-affected subject 17A, relative to untreated). Also, the DUX4-fl induction in the assay with DUX4-fl (myogenic cells of FSHD1-affected subject 19A, relative to untreated) is 122 fold. The DUX4-fl levels result in the assay on DUX4-fl is on record as “only mildly induced”.
